From BindingDB's records for doi:10.7270/Q2B27SRF (Broad Institute, 2010)

Target: Serine/threonine-protein kinase 33 (Homo sapiens, UniProt Q9BYT3)
Experiment: STK33 kinase inhibitors, dose response, biochemical, luminescence, cell-free, retest (AID 2821)

Chain of Serine/threonine-protein kinase 33 (Q9BYT3 whole entry): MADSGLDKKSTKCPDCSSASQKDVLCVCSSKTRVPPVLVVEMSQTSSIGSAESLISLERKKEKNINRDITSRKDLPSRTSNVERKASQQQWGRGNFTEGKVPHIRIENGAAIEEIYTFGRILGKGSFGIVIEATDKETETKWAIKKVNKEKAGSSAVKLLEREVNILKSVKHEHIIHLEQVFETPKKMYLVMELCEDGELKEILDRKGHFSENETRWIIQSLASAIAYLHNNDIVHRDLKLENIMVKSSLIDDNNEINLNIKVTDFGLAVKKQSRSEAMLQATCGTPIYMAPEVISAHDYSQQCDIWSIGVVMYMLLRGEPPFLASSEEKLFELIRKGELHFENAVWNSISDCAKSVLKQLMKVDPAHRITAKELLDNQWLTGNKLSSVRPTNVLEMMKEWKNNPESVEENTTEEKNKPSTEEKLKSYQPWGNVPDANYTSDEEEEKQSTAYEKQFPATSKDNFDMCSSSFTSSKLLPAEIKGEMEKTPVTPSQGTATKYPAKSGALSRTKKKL

Compound | EC50 [µM]
CCN1CCN(c2cc(C)c3cc(NC(=O)c4ccc(Br)o4)ccc3n2)CC1 [5-bromo-N-[2-(4-ethylpiperazin-1-yl)-4-methylquinolin-6-yl]furan-2-carboxamide] | 18.4
Cn1c(/N=N/c2ccccc2)nc2ccccc21 [(1-methyl-2-benzimidazolyl)-phenyldiazene] | > 120
COc1ccc(C(=O)NNC(=O)c2ccccn2)cc1 | 21.8
C[C@H]1CCCC(=O)CCCC=Cc2cc(O)cc(O)c2C(=O)O1 [(11S)-11-methyl-15,17-bis(oxidanyl)-12-oxabicyclo[12.4.0]octadeca-1(18),2,14,16-tetraene-7,13-dione] | 44.6
COc1cc(C=Nn2c(S)nnc2-c2[nH]nc3c2CCC3)ccc1O [(4E)-2-methoxy-4-[[[5-sulfanylidene-3-(1,4,5,6-tetrahydrocyclopenta[c]pyrazol-3-yl)-1H-1,2,4-triazol-4-yl]amino]methylidene]cyclohexa-2,5-dien-1-one] | 10.4
Oc1ccccc1-c1nc(NCCN2CCOCC2)c2ccccc2n1 [(6E)-6-[4-(2-morpholin-4-ylethylamino)-1H-quinazolin-2-ylidene]cyclohexa-2,4-dien-1-one] | 14.3
S=C(NCc1ccccc1)Nc1ccc2cn[nH]c2c1 [1-(1H-indazol-6-yl)-3-(phenylmethyl)thiourea] | > 120
COC(=O)c1ccccc1NC(=O)N1CCN(C/C=C/c2ccccc2)CC1 | 8.73
O=c1c(-c2c(O)cc(O)c3c2O[C@H](c2ccc(O)cc2)CC3)c(-c2ccc(O)cc2)oc2cc(O)cc(O)c12 [3-[(2S)-5,7-dihydroxy-2-(4-hydroxyphenyl)-3,4-dihydro-2H-1-benzopyran-8-yl]-5,7-dihydroxy-2-(4-hydroxyphenyl)-1-benzopyran-4-one] | > 120
O=C(Nc1ccccc1C(=O)O)c1cccc(C(=O)Nc2ccccc2C(=O)O)c1 [The compound has not trivial name.] | 59.6
NS(=O)(=O)c1ccc2c(c1)C(N=O)c1cc(S(N)(=O)=O)ccc1-2 | 4.91
Nc1ccc(N)c2c(O)c3ccccc3c(O)c12 [1,4-bis(azanyl)-2,3-dihydroanthracene-9,10-dione] | 23.8
Cc1cc(C(=O)O)ccc1N=Cc1c(O)ccc2ccccc12 [4-[(2-Hydroxy-naphthalen-1-ylmethylene)-amino]-3-methyl-benzoic acid] | 22.7
Oc1ccc(/N=C/c2c(O)ccc3ccccc23)cc1 [(1Z)-1-[(4-hydroxyanilino)methylidene]-2-naphthalenone] | 2.84
COc1cc2c(ccc3cc(OC)c(OC)c(O)c32)cc1O [3,6,7-trimethoxyphenanthrene-2,5-diol] | 27.4
COc1ccc(NC(=O)c2cc([N+](=O)[O-])ccc2O)cc1 | 18.6
COc1cc(-c2cc(=O)c3c(O)c(OC)c(OC)c(O)c3o2)ccc1O [5,8-dihydroxy-2-(4-hydroxy-3-methoxy-phenyl)-6,7-dimethoxy-chromone] | 9.68
N#Cc1c2ccc(O)cc2n2ccccc12 [3-hydroxypyrido[1,2-a]indole-10-carbonitrile] | 4.59

Results, then the compound that gave them:

EC50 [µM] | Compound
> 120 | CC(C)N=C(S)Nc1ccc2c[nH]nc2c1 [SMR000261130]
> 120 | CN(C)c1nc2sc3c(c2c(=O)n1C)CC(C)(C)OC3 [MLS000071412]
9.63 | O=C1/C(=C/c2ccc(O)c(O)c2)Oc2cc(O)ccc21 [MLS000863576]
32.5 | O=C(O)c1cccc(Nc2nc(-c3cccnc3)nc3ccccc23)c1 [SMR000172180]
0.769 | CCCn1c(NC(=O)c2cccc(S(=O)(=O)N3CCCC3)c2)nc2ccccc21 [MLS000057540]
> 120 | CN1CCc2c(sc3c2c(=O)n(-c2ccccc2)c2n[nH]c(=S)n32)C1 [MLS000558136]
> 120 | COc1ccc(NC(=S)Nc2ccc3cn[nH]c3c2)cc1 [MLS001005420]
15.9 | CN(C)/C=C/C(=O)c1ccc2noc(-c3ccccc3)c2c1 [SMR000549693]
38.9 | Cc1ccc2c(c1)/C(=C/c1ccco1)C(=O)N2 [SMR000312107]
49.7 | CCNC(=S)Nc1ccc2cn[nH]c2c1 [SMR000261305]
